# In PubChem BioAssay (NCI):
# “And” between values parts separate entries of the source, which are not always exact repeats. Equal values may be shown once.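 All cell lines were grown in 96-well plates and treated with compound for 48 hours. The concentration for 50% growth inhibition is given as GI50. Definition used: TGI = concentration required for complete inhibition of growth.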
# Tests used:
# Assay in all cases: inhibition of tumour cell growth, NCI panel, 48 h
# T-47D breast = system: T-47D breast
# MDA-MB-231 breast = system: MDA-MB-231 breast
# HOP-62 NSCLC = system: HOP-62 NSCLC
# KM12 colon = system: KM12 colon
# MOLT-4 leukemia = system: MOLT-4 leukemia
# SK-OV-3 ovarian = system: SK-OV-3 ovarian
# COLO 205 colon = system: COLO 205 colon
# SN12C renal = system: SN12C renal
# SK-MEL-28 melanoma = system: SK-MEL-28 melanoma
# EKVX NSCLC = system: EKVX NSCLC
Structure (SMILES),GI50 (T-47D breast) [µM],TGI (T-47D breast) [µM],GI50 (MDA-MB-231 breast) [µM],TGI (MDA-MB-231 breast) [µM],GI50 (HOP-62 NSCLC) [µM],TGI (HOP-62 NSCLC),GI50 (KM12 colon) [µM],TGI (KM12 colon),GI50 (MOLT-4 leukemia) [µM],TGI (MOLT-4 leukemia),GI50 (SK-OV-3 ovarian) [µM],TGI (SK-OV-3 ovarian),GI50 (COLO 205 colon) [µM],TGI (COLO 205 colon),GI50 (SN12C renal) [µM],TGI (SN12C renal),GI50 (SK-MEL-28 melanoma) [µM],TGI (SK-MEL-28 melanoma),TGI (EKVX NSCLC),GI50 (EKVX NSCLC) [µM]
CCCCCCCCCCCCSC(=N)N,2.03,4.34,2.03,8.28,10.7,28.9 µM,3.33,11.3 µM,2.46,5.85 µM,17.4,33.5 µM,1.98,3.72 µM,8.21,21.4 µM,13.7,27.9 µM,,
Nc1c(C(=O)Nc2ccccc2)[n+]([O-])c2ccccc2[n+]1[O-],,,,,,34.4 µM,,30.4 µM,,> 100 µM,,> 100 µM,,29.3 µM,,31.4 µM,,34.9 µM,56.9 µM,
CCN(CCCl)CCCNc1c2ccccc2nc2ccc(OC)cc12,,,,,200,,268,,15.7,,446,,,1.12 µM,274,,665,,,557
CC(C)(C)C(=O)ON1N=NC2C3CC(OCc4ccccc4)(OCc4ccccc4)C(O3)C21 (configuration not stated),,,,,,> 100 µM,,55.4 µM,,32.2 µM,,> 100 µM,,38.4 µM,,39.3 µM,,35.3 µM,,
O=C1c2c(n(Cc3ccccc3)c(=O)n2Cc2ccccc2)C(=O)N1Cc1ccccc1,,,,,,> 100 µM,,> 100 µM,,> 100 µM,,> 100 µM,,> 100 µM,,> 100 µM,,> 100 µM,> 100 µM,
Cc1cc(NS(=O)(=O)c2ccc(NC(=O)c3cccc4c(Nc5ccc(S(=O)(=O)N=C(N)N)cc5)c5ccccc5nc34)cc2)no1,,,,,,> 100 µM,,> 100 µM,,> 100 µM,,> 100 µM,,> 100 µM,,> 100 µM,,> 100 µM,> 100 µM,
O=C(OCC1CO1)c1cccs1 (configuration not stated),,,,,,> 100 µM,,> 100 µM,,> 100 µM,,> 100 µM,,> 100 µM,,> 100 µM,,> 100 µM,> 100 µM,
COc1cc2c(cc1O)CC13CCC(=O)N1CCc1cc(OC)c(O)c-2c13 (configuration not stated),,,,,,> 68.1 µM,,,,> 68.1 µM,,,,> 68.1 µM,,> 68.1 µM,,> 68.1 µM,> 68.1 µM,
CCOC(=O)C(=Cc1ccc(C(=O)OC)cc1)C(=O)OCC,,,,,,4.43 µM,,8.15 µM,,7.74 µM,,26.4 µM,,3.59 µM,,5 µM,,3.34 µM,26.9 µM,
N#CCc1ncc(-c2ccc(C(F)(F)F)cc2)c(NC2CCCCCC2)n1,> 10,> 10,> 10,> 10,> 10,> 10 µM,> 10,> 10 µM,> 10,> 10 µM,> 10,> 10 µM,> 10,> 10 µM,> 10,> 10 µM,> 10,> 10 µM,,
CC(=O)OCC1OC(OC2CC3C(C)(C)C(O)CC[C@]3(C)C3CCC45CC4(CC[C@H]5C(C)CC(O)C4OC4(C)C)[C@]23C)C(O)C(O)C1O (some centres not stated),,,,,14.2,19.1 µM and 29.5 µM,4.66,15.6 µM and 17.3 µM,3.01,2.34 µM and 7.26 µM,15.7,15 µM and 29.2 µM,3.4,13.8 µM and 11.9 µM,,15.2 µM and 21.6 µM,8.37,14.3 µM and 21.3 µM,15.9 µM and 29.2 µM,13.7
Cc1cc(=O)oc2cc(OCc3c(F)cccc3Cl)ccc12,,> 100,,> 100,,38 µM,,,,,,,,,,> 100 µM,,> 100 µM,,
COc1ccc(-c2ccc(-c3ccc(-c4ccc(C(=N)N)cc4)s3)s2)cc1OC,3.09,31.8,,,3.26,17.9 µM,0.749,2.16 µM,2.51,6.6 µM,14.5,37.3 µM,1.37,4.57 µM,3.6,21.8 µM,18.1,40.6 µM,,
CCN(c1ccc(Br)cc1)c1c(Br)c(=O)nc2ccccn12,,,,,,> 100 µM,,> 100 µM,,> 100 µM,,> 100 µM,,> 100 µM,,> 100 µM,,> 100 µM,> 100 µM,
CN1CC(C(=O)C2C(=O)c3ccccc3C2=O)C(=O)C(=O)C(C(=O)C2C(=O)c3ccccc3C2=O)C1 (configuration not stated),,,,,,> 10 µM,,> 100 µM,,> 100 µM,,> 100 µM,,> 100 µM,,> 100 µM,,> 100 µM,,
COc1ccc(-n2c3c(c4c(CN5CCOCC5)c(O)ccc42)CCc2ccccc2C3=O)cc1,> 100,> 100,52.1,> 100,> 100,> 100 µM,> 100,> 100 µM,45.9,> 100 µM,> 100,> 100 µM,> 100,> 100 µM,43.3,> 100 µM,,,> 100 µM,> 100
c1ccc2c(c1)[nH]c1cnc3c4cccnc4[nH]c3c12,,,,,,96.1 µM,,,,49.3 µM,,,,30.3 µM,,34.1 µM,,38.4 µM,39 µM,
O=c1cc(-c2ccccc2)[nH]n1-c1nc2ccccc2[nH]1,4.41,> 100,6.92,93.6,4.96,> 100 µM,5.28,> 100 µM,,,8.58,> 100 µM,27.8,> 100 µM,6.84,> 100 µM,3.61,> 100 µM,,
NC(=O)C(c1ccccc1)N1CCOCC1 (configuration not stated),,,,,,> 100 µM,,> 100 µM,,> 100 µM,,> 100 µM,,> 100 µM,,> 100 µM,,> 100 µM,,
O=C(Nc1ccccc1O)c1ccc(Oc2cccc(C(=O)Nc3ccccc3O)c2)cc1,3.13,10.1,2.22,11.8,2.24,12.5 µM,3.17,11.9 µM,0.767,6.85 µM,4.42,17.2 µM,15.7,29.9 µM,2.84,17.9 µM,1.84,12.2 µM,,
O=C(C(=O)N1CC2C=CC1CC2)c1c[nH]c2ccccc12 (configuration not stated),,,,,,> 100 µM,,> 100 µM,,> 100 µM,,> 100 µM,,> 100 µM,,> 100 µM,,,,
Fc1ccc(C2SCc3nc4ccccc4n32)cc1 (configuration not stated),,,,,,> 100 µM,,> 100 µM,,> 100 µM,,> 100 µM,,> 100 µM,,> 100 µM,,76.5 µM,> 100 µM,
